Laboratory results from ChEMBL document CHEMBL5143607, “Discovery and structure-activity relationships of a novel oxazolidinone class of bacterial type II topoisomerase inhibitors” (Bioorg Med Chem Lett, 2022).
pIC50: −log10 of the molar value. ≈ marks a conversion by molar mass, not a printed value.

Experiments:
[1] = Cytotoxicity against human HepG2 cells assessed as reduction in cell viability for 24 hrs by Celltiter-Glo assay; type: toxicity, cell-based
[2] = test system: Acinetobacter baumannii; assay: Antibacterial activity against Acinetobacter baumannii NCTC 13420 assessed as bacterial growth inhibition by CLSI protocol based assay; type: functional
[3] = test system: Klebsiella pneumoniae; assay: Antibacterial activity against Klebsiella pneumoniae ATCC 700603 assessed as bacterial growth inhibition by CLSI protocol based assay; type: functional
[4] = test system: Pseudomonas aeruginosa; assay: Antibacterial activity against Pseudomonas aeruginosa ATCC 27853 assessed as bacterial growth inhibition by CLSI protocol based assay; type: functional
[5] = test system: Escherichia coli; assay: Antibacterial activity against Escherichia coli W4573 assessed as bacterial growth inhibition by CLSI protocol based assay; type: functional
[6] = test system: Escherichia coli; assay: Antibacterial activity against Escherichia coli N43 assessed as bacterial growth inhibition by CLSI protocol based assay; type: functional
[7] = target: Voltage-gated inwardly rectifying potassium channel KCNH2 (Homo sapiens, UniProt Q12809); assay: Inhibition of human ERG by Ionworks electrophysiology assay; type: toxicity
Sequence of Voltage-gated inwardly rectifying potassium channel KCNH2 (Q12809 whole entry): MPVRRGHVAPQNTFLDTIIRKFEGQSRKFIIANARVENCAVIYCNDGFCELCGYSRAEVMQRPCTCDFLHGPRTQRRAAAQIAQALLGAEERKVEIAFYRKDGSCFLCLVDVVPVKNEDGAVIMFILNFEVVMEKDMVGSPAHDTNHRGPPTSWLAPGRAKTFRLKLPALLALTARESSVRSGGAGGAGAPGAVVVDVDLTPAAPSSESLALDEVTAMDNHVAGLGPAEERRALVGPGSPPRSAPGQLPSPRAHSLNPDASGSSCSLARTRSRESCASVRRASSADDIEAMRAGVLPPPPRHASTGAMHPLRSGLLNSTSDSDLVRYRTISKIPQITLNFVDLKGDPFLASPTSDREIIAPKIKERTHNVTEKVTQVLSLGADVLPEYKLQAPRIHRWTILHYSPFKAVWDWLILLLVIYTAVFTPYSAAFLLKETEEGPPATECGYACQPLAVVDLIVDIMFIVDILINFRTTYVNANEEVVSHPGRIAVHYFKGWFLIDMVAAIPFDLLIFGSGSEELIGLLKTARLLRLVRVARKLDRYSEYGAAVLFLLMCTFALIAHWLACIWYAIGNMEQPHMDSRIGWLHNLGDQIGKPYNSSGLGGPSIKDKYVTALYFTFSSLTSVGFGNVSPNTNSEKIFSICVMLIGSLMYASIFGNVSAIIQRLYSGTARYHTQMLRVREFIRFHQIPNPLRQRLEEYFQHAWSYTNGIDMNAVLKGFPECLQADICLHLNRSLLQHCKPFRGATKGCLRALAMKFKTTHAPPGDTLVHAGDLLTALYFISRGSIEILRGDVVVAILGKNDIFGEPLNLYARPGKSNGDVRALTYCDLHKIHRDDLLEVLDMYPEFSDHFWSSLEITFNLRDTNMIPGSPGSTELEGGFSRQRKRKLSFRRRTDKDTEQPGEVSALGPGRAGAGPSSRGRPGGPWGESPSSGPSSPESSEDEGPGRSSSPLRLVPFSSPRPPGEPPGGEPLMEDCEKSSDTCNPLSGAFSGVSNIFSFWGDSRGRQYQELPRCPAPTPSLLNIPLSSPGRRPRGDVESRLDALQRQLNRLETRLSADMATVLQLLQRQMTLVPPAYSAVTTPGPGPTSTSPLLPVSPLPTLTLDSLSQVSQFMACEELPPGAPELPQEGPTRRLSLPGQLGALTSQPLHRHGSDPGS

[8] = Lipophilicity, logD of the compound by shake flask assay; type: physicochemical; conditions: octanol/water
[9] = test system: Staphylococcus aureus; assay: Antibacterial activity against Staphylococcus aureus ATCC 29213 assessed as bacterial growth inhibition by CLSI protocol based assay; type: functional
[10] = target: DNA gyrase (Escherichia coli, UniProt P0AES4+P0AES6); assay: Inhibition of Escherichia coli DNA gyrase supercoiling activity; type: protein-complex assay
[11] = Inhibition of Escherichia coli topoisomerase 4 assessed as reduction in decatenation
[12] = Intrinsic clearance in mouse liver microsomes in presence of NADPH and measured upto 45 mins; type: ADME, Microsome; conditions: read-out: CLH
[13] = Intrinsic clearance in human liver microsomes in presence of NADPH and measured upto 45 mins; type: ADME, Microsome; conditions: read-out: CLH
[14] = Plasma protein binding in mouse assessed as free fraction by equilibrium dialysis assay; type: ADME, cell-free
[15] = target: DNA topoisomerase 2-alpha (Homo sapiens, UniProt P11388); assay: Inhibition of human topoisomerase 2 assessed as reduction in decatenation
Sequence of DNA topoisomerase 2-alpha (P11388 whole entry): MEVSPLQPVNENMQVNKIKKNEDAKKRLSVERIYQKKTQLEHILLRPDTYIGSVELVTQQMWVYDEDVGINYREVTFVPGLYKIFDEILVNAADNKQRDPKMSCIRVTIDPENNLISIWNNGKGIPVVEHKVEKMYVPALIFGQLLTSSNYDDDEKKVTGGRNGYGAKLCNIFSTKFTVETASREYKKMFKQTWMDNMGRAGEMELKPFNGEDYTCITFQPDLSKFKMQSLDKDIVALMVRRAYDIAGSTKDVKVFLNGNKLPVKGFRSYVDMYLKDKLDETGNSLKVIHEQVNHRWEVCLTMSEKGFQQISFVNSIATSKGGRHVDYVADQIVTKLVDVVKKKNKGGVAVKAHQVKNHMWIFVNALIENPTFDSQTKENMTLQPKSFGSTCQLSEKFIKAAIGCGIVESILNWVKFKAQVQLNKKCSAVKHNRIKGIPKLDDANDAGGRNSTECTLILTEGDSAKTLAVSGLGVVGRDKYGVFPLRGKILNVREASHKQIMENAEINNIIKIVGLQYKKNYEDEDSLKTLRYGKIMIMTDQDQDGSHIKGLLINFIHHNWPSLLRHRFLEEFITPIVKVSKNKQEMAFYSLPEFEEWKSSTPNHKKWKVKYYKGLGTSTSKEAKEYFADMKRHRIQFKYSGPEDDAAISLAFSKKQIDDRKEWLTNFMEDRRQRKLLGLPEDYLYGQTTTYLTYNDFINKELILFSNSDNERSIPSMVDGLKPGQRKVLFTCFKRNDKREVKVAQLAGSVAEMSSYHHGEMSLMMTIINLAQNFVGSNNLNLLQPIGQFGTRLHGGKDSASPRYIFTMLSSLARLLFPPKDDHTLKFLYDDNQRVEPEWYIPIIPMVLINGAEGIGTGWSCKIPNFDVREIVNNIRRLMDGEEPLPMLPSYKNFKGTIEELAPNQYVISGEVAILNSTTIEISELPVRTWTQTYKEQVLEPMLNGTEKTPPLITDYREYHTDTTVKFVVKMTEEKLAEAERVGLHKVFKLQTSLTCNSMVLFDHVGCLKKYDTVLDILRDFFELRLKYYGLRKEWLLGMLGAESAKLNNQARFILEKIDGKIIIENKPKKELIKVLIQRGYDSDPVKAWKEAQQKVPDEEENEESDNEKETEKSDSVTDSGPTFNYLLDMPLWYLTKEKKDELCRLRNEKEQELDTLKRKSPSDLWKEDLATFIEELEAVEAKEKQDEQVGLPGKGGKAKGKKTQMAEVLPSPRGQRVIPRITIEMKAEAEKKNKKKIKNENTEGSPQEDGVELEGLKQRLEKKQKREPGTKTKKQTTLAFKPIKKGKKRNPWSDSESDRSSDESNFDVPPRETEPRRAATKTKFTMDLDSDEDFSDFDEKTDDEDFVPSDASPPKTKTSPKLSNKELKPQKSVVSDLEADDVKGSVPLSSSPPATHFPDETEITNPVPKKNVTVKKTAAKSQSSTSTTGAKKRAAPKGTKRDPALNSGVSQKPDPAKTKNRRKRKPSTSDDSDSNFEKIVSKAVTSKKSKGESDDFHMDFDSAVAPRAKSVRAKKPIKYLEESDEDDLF

[16] = target: hERG (KCNH2) (Homo sapiens, UniProt Q12809); assay: Inhibition of human ERG at 100 uM by Ionworks electrophysiology assay; type: toxicity
Sequence of hERG (KCNH2) (Q12809 whole entry): as the sequence (Q12809 whole entry) above

[17] = Kinetic solubility of compound; type: physicochemical; conditions: read-out: Kinetic_solubility
[18] = test system: Escherichia coli; assay: Resistance development in Escherichia coli ATCC25922 assessed as spontaneous resistance frequency at 4 times MIC by resistance development assay; type: functional
[19] = test system: Escherichia coli; assay: Antibacterial activity against Escherichia coli ATCC25922 assessed as bacterial growth inhibition by CLSI protocol based assay; type: functional
[20] = Protein binding in mouse plasma by equilibrium dialysis assay; type: ADME, cell-free; conditions: read-out: PPB (converted)
[21] = Protein binding in human plasma by equilibrium dialysis assay; type: ADME, cell-free; conditions: read-out: PPB (converted)

## COc1ccc2ccc(=O)n(CCN[C@H]3CC[C@H]4[C@H](C3)OC(=O)N4c3ncc4c(n3)NC(=O)CO4)c2n1
[1]
  IC50 at 24 h: > 128 µg/mL
[2]
  MIC: 1 µg/mL (≈ 1.97 µM)
[3]
  MIC: 8 µg/mL (≈ 15.8 µM)
[4]
  MIC: 8 µg/mL (≈ 15.8 µM)
[5]
  MIC: 0.5 µg/mL (≈ 0.985 µM)
[6]
  MIC: 0.015 µg/mL (≈ 0.0296 µM)
[7]
  pIC50: < 4.49
[8]
  logD: 0.9

## COc1cnc2ccc(=O)n(CCN[C@H]3CC[C@H]4[C@H](C3)OC(=O)N4c3ccc4c(n3)NC(=O)CO4)c2n1
[1]
  IC50 at 24 h: > 128 µg/mL
[2]
  MIC: 0.12 µg/mL (≈ 0.236 µM)
[3]
  MIC: 2 µg/mL (≈ 3.94 µM)
[4]
  MIC: 1 µg/mL (≈ 1.97 µM)
[5]
  MIC: 0.12 µg/mL (≈ 0.236 µM)
[6]
  MIC: 0.004 µg/mL (≈ 0.00788 µM)
[9]
  MIC: 0.015 µg/mL (≈ 0.0296 µM)
[7]
  pIC50: 5.05
[8]
  logD: 1.37

## N#Cc1cnc2ccc(=O)n(CCN[C@H]3CC[C@H]4[C@H](C3)OC(=O)N4c3ccc4c(n3)NC(=O)CO4)c2c1
[10]
  pIC50: 7.05
[11]
  pIC50: 7.77
[1]
  IC50 at 24 h: > 128 µg/mL
[2]
  MIC: 1 µg/mL (≈ 1.99 µM)
[3]
  MIC: 8 µg/mL (≈ 16 µM)
[4]
  MIC: 2 µg/mL (≈ 3.99 µM)
[5]
  MIC: 0.25 µg/mL (≈ 0.499 µM)
[6]
  MIC: 0.004 µg/mL (≈ 0.00798 µM)
[9]
  MIC: 0.06 µg/mL (≈ 0.12 µM)
[7]
  pIC50: < 4.00
[8]
  logD: 0.79
[12]
  microsomal CLint: 55 µL/min/mg
[13]
  microsomal CLint: < 3 µL/min/mg
[14]
  fraction unbound: > 0.3
[15]
  pIC50: < 4.00

## O=C1COc2ccc(N3C(=O)O[C@H]4C[C@@H](NCCn5c(=O)ccc6ccc(C(=O)O)cc65)CC[C@@H]43)nc2N1
[2]
  MIC: > 64 µg/mL
[3]
  MIC: > 64 µg/mL
[4]
  MIC: > 64 µg/mL
[5]
  MIC: > 64 µg/mL
[6]
  MIC: 16 µg/mL (≈ 30.8 µM)
[9]
  MIC: > 64 µg/mL
[16]
  inhibition at 100 µM: 33%
[8]
  logD: < 0.2

## N#Cc1cnc2ccc(=O)n(CCCN[C@H]3CC[C@H]4[C@H](C3)OC(=O)N4c3ccc4c(n3)NC(=O)CO4)c2c1
[10]
  pIC50: 6.47
[11]
  pIC50: 5.37
[1]
  IC50 at 24 h: > 32 µg/mL
[2]
  MIC: 2 µg/mL (≈ 3.88 µM)
[3]
  MIC: 8 µg/mL (≈ 15.5 µM)
[4]
  MIC: 2 µg/mL (≈ 3.88 µM)
[5]
  MIC: 0.25 µg/mL (≈ 0.485 µM)
[6]
  MIC: 0.015 µg/mL (≈ 0.0291 µM)
[9]
  MIC: 0.5 µg/mL (≈ 0.97 µM)
[7]
  pIC50: < 4.00
[8]
  logD: 0.5
[12]
  microsomal CLint: < 3 µL/min/mg
[13]
  microsomal CLint: < 3 µL/min/mg
[17]
  solubility kinetic: 86 µM (≈ 44.3 µg/mL)
[14]
  fraction unbound: > 0.3
[15]
  pIC50: < 4.00
[18]
  Activity: 7.8 10^-8No_unit

## O=C1COc2ccc(N3C(=O)O[C@H]4C[C@@H](NCCn5c(=O)cnc6ccc(F)cc65)CC[C@@H]43)nc2N1
[1]
  IC50 at 24 h: > 64 µg/mL
[2]
  MIC: 0.03 µg/mL (≈ 0.0607 µM)
[3]
  MIC: 8 µg/mL (≈ 16.2 µM)
[4]
  MIC: 4 µg/mL (≈ 8.09 µM)
[5]
  MIC: 0.25 µg/mL (≈ 0.506 µM)
[6]
  MIC: ≤ 0.002 µg/mL
[9]
  MIC: 0.015 µg/mL (≈ 0.0303 µM)
[16]
  inhibition at 100 µM: 33%
[8]
  logD: 1.58

## COc1ccc2ccc(=O)n(CCN[C@H]3CC[C@H]4[C@H](C3)OC(=O)N4c3ccc4c(n3)NC(=O)CS4)c2n1
[10]
  pIC50: 6.98
[11]
  pIC50: 7.62
[1]
  IC50 at 24 h: 35 µg/mL (≈ 67 µM)
[2]
  MIC: 0.015 µg/mL (≈ 0.0287 µM)
[3]
  MIC: 2 µg/mL (≈ 3.83 µM)
[4]
  MIC: 1 µg/mL (≈ 1.91 µM)
[5]
  MIC: 0.12 µg/mL (≈ 0.23 µM)
[6]
  MIC: ≤ 0.002 µg/mL
[9]
  MIC: ≤ 0.002 µg/mL
[7]
  pIC50: 5.40
[8]
  logD: 2.58
[12]
  microsomal CLint: > 277 µL/min/mg
[13]
  microsomal CLint: 267 µL/min/mg
[17]
  solubility kinetic: 54 µM (≈ 28.2 µg/mL)
[14]
  fraction unbound: 0.09
[15]
  pIC50: < 4.00
[19]
  MIC: 0.06 µg/mL (≈ 0.115 µM)

## COc1cnc2ccc(=O)n(CCN[C@H]3CC[C@H]4[C@H](C3)OC(=O)N4c3ccc4c(n3)NC(=O)CO4)c2c1
[10]
  pIC50: 6.66
[11]
  pIC50: 7.00
[1]
  IC50 at 24 h: > 128 µg/mL
[2]
  MIC: 1 µg/mL (≈ 1.97 µM)
[3]
  MIC: 8 µg/mL (≈ 15.8 µM)
[4]
  MIC: 2 µg/mL (≈ 3.95 µM)
[5]
  MIC: 0.25 µg/mL (≈ 0.494 µM)
[6]
  MIC: ≤ 0.008 µg/mL
[9]
  MIC: 0.03 µg/mL (≈ 0.0592 µM)
[7]
  pIC50: 4.49
[8]
  logD: 1.36
[12]
  microsomal CLint: 62 µL/min/mg
[13]
  microsomal CLint: 35 µL/min/mg
[17]
  solubility kinetic: 94 µM (≈ 47.6 µg/mL)
[14]
  fraction unbound: 0.25
[15]
  pIC50: < 4.00

## COc1ccc2ccc(=O)n(CCN[C@@H]3CC[C@@H]4[C@H](C3)OC(=O)N4c3ccc4c(n3)NC(=O)CO4)c2n1
[1]
  IC50 at 24 h: > 32 µg/mL
[2]
  MIC: 1 µg/mL (≈ 1.97 µM)
[3]
  MIC: 8 µg/mL (≈ 15.8 µM)
[4]
  MIC: 4 µg/mL (≈ 7.9 µM)
[5]
  MIC: 0.25 µg/mL (≈ 0.494 µM)
[6]
  MIC: 0.004 µg/mL (≈ 0.0079 µM)
[9]
  MIC: 0.008 µg/mL (≈ 0.0158 µM)
[7]
  pIC50: 5.30
[8]
  logD: 2
[20]
  fraction unbound: 0.873
[21]
  fraction unbound: 0.965

## COc1ccc2ccc(=O)n(CCN[C@H]3CC[C@H]4[C@H](C3)OC(=O)N4c3ccc4c(n3)NC(=O)CO4)c2c1
[1]
  IC50 at 24 h: > 64 µg/mL
[2]
  MIC: 0.06 µg/mL (≈ 0.119 µM)
[3]
  MIC: 8 µg/mL (≈ 15.8 µM)
[4]
  MIC: 4 µg/mL (≈ 7.91 µM)
[5]
  MIC: 0.25 µg/mL (≈ 0.495 µM)
[6]
  MIC: 0.03 µg/mL (≈ 0.0593 µM)
[9]
  MIC: 0.008 µg/mL (≈ 0.0158 µM)
[16]
  inhibition at 100 µM: 85%
[8]
  logD: 2.25

## COc1ccc2ccc(=O)n(CCN[C@H]3CC[C@H]4[C@H](C3)OC(=O)N4c3ccc4c(n3)NC(=O)C(C)(C)O4)c2n1
[2]
  MIC: 1 µg/mL (≈ 1.87 µM)
[3]
  MIC: 64 µg/mL (≈ 120 µM)
[4]
  MIC: 32 µg/mL (≈ 59.9 µM)
[5]
  MIC: 2 µg/mL (≈ 3.74 µM)
[6]
  MIC: 0.03 µg/mL (≈ 0.0561 µM)
[9]
  MIC: 0.03 µg/mL (≈ 0.0561 µM)
[8]
  logD: 2.84
